Results on three compounds are retold here after patent publication US4889935A, “Aminoguanidine derivatives” (American Home Products Corporation, priority 1989, dated 1989).

Assay [1] concerns carrageenan paw edema (acute inflammatory response) in Sprague-Dawley rats. As to the kind of experiment: rat carrageenan paw edema assay. The class given is in vivo, rat (Sprague-Dawley). The note with it: for % Inhibition (peroral) of paw edema: 1 hour before carrageenan, 3 hours. As for the experimental part:
The compounds of the invention are further tested in the rat carrageenan paw edema assay to determine their ability to inhibit the acute inflammatory response. This assay is carried out as follows: 140-180 gm mal Sprague-Dawley rats, in groups of 6 animals are injected subcutaneously in the right paw with 0.1 ml of 1% carrageenan at zero time. Mercury plethysmographic readings (ml) of the paw are made at zero time and 3 hours later. Test compounds are suspended or dissolved in 0.5% methycellulose and given perorally 1 hour prior to carrageenan administration. The increase in paw volume (edema in ml.) produced by the carrageenan is measured. […] Unpaired Student's t-test is used to determine statistical significance.
A general note: In the carrageenan paw model, swelling and tenderness develop within hours.

The subject of assay [2] is adjuvant-induced polyarthritis in Sprague-Dawley rats. As to the kind of experiment: adjuvant arthritis assay. The conditions noted are these: oral dose 30 mg/kg. Format: in vivo, rat (Sprague-Dawley).
In assay [3] the test system is LTB4 synthesis by rat polymorphonuclear leukocytes (lipoxygenase). As to the kind of experiment: inhibition of LTB4 synthesis by rat glycogen-elicited polymorphonuclear leukocytes (PMN). Format: cell-based, rat (female Wistar). As for the experimental part: This is especially true with respect to 5,12-diHETE, which is also denoted as LTB4 [See Ford-Hitchinson, J. Roy. Soc. Med., 74, 831 (1981)]. The assay of this Example measures the ability of the compounds of the invention to inhibit the synthesis of LTB4 by rat glycogenelicited polymorphonuclear leukocytes (PMN).
The assay is carried out as follows:
Rat polymorphonuclear leukocytes (PMNs) are obtained from female Wistar rats (150-200 g) which receive an injection of 6% glycogen (10 ml i.p.). Rats are sacrificed 18-24 hours post injection by CO2 asphyxiation and the elicited cells are harvested by peritoneal lavage using physiological saline (0.9% NaCl). The exudate is centrifuged at 400 x g for 10 minutes. The supernatant fluid is discarded and the cell pellet is resuspended to a concentration of 2.0×10^7 cells/ml in HBSS containing Ca^++ and Mg^++ and 10 μM L-cysteine.
To 1 ml aliquots of cell suspension, test drugs or vehicle are added, then preincubated at 37° C. for 10 minutes. […] Supernatants are then analyzed by HPLC analysis on a 15 cm×4.6 mm ID Supelcosil LC-18 (Supelco)(3M) column, using a two solvent system at a flow rate of 1.4 ml total flow as follows: […]
Injections: 150 μl of each supernatant is injected directly onto column and ^3 H arachidonic acid metabolites are monitored using an on-line radioactivity detector (Ramona, IN/US, Fairfield, NJ). […]

SMILES strings stand for the structures.

As to `CC(=NNC(=N)N)c1cccc(OCc2ccc3ccccc3c2)c1` [Example 1, 2-[1-[3-(2-Naphthalenylmethoxy)phenyl]ethylidene]-hydrazinecarboximidamide,0.1 hydrate], the “% Inhibition (peroral) of paw edema” value in assay [1] (at 50 mg/kg peroral) was 42%. For the same compound, the “% Change of Right Paw Edema at Day 4” value in assay [2] (day 4) is recorded as 50%. Moreover, the “% Change of Left Paw Edema at Day 16” value in assay [2] (day 16) was 31%.

On to `CC(=NNC(=N)N)c1cccc(OCc2ccc3ccccc3n2)c1` [Example 2, 2-[1-[3-(2-Quinolinylmethoxy)phenyl]ethylidene]hydrazinecarboximidamide], for which, in assay [3], the “>50% Inhibitory at 50 μm (LTB4 synthesis)” value is on record as “+ (those compounds having an inhibition of >50%)”. Moreover, the “% Inhibition (peroral) of paw edema” value in assay [1] (at 100 mg/kg peroral) worked out at 43%.

In the case of `COc1ccc2c(c1)c(CC(=O)O)c(C)n2C(=O)c1ccc(Cl)cc1` [Indomethacin, reference compound], the ED50 in assay [1] (Rattus norvegicus, po, 3 h, read-out: Oral ED50 (95% C.L.) mg/kg) stood at 3.7 mg/kg.
